Among the data in PubChem BioAssay AID1259407 (Chemical Carcinogenesis Research Information System (CCRIS), 2018) are mutagenic call values, retold here.

The data set deals with CCRIS mutagenicity, Ames/micronucleus/aberration tests. Kind of data set: CCRIS mutagenicity studies.

Calls of active or inactive are those of the source. The rule behind the calls is not given here.

Turning to `Cc1ccc(/C=C/c2ccc([N+](=O)[O-])cc2)cc1`, the mutagenic call (Test System: AMES SALMONELLA TYPHIMURIUM, Strain/Indicator: TA98 (NR), Metabolic Activation: NONE, Method: STANDARD PLATE) was “inactive; negative”; the mutagenic call (Test System: AMES SALMONELLA TYPHIMURIUM, Strain/Indicator: TA98 (NR), Metabolic Activation: S-9, Method: STANDARD PLATE) was “active; positive”; the mutagenic call (Test System: AMES SALMONELLA TYPHIMURIUM, Strain/Indicator: TA98, Metabolic Activation: NONE, Method: STANDARD PLATE) is “active; positive”; the mutagenic call (Test System: AMES SALMONELLA TYPHIMURIUM, Strain/Indicator: TA98, Metabolic Activation: RAT, LIVER, S-9, AROCLOR, Method: STANDARD PLATE) was “active; positive”; the mutagenic call (Test System: AMES SALMONELLA TYPHIMURIUM, Strain/Indicator: TA98, Metabolic Activation: S-9, Method: STANDARD PLATE) was “active; positive”; the mutagenic call (Test System: AMES SALMONELLA TYPHIMURIUM, Strain/Indicator: TA100 (NR), Metabolic Activation: NONE, Method: STANDARD PLATE) was “inactive; negative”. In addition, the mutagenic call reads like this: (Test System: AMES SALMONELLA TYPHIMURIUM, Strain/Indicator: TA100 (NR), Metabolic Activation: S-9, Method: STANDARD PLATE) “active; positive”; (Test System: AMES SALMONELLA TYPHIMURIUM, Strain/Indicator: TA100, Metabolic Activation: NONE, Method: STANDARD PLATE) “active; positive”; (Test System: AMES SALMONELLA TYPHIMURIUM, Strain/Indicator: TA100, Metabolic Activation: RAT, LIVER, S-9, AROCLOR, Method: STANDARD PLATE) “active; positive”; (Test System: AMES SALMONELLA TYPHIMURIUM, Strain/Indicator: TA100, Metabolic Activation: S-9, Method: STANDARD PLATE) “active; positive”.
On to `Nc1nc(-c2ccc([N+](=O)[O-])o2)cs1`, for which the mutagenic call (Test System: AMES SALMONELLA TYPHIMURIUM, Strain/Indicator: TA100, Metabolic Activation: RAT, LIVER, S-9, KC500 OR PHENOBARBITAL, Method: LIQUID SUSPENSION) was “active; positive” and the mutagenic call (Test System: E. COLI WP2, Strain/Indicator: WP2, Metabolic Activation: NONE, Method: SPOT) is “active; positive”.
